# In the RepoRT retention time repository:
# Experiment: Waters ACQUITY UPLC BEH C18, 100 × 2.1 mm, 1.7 µm, 40 °C, 0.3 to 0.4 mL/min, estimated dead time 0.63 min; A: water + 0.1% formic acid; B: methanol + 0.1% formic acid; gradient (min/%B) 0/0.5 0.1/0.5 10/80 10.1/99.5 12/99.5
# Conditions: stereoisomer not certain
row,LC retention time [min],Structure (SMILES)
1,3.13,O=C(C=Cc1ccc(O)c(O)c1)OC1CC(O)(C(=O)O)CC(O)C1O (stereo unspecified)
2,6.72,CCOC(=O)Oc1c(OC)cc(C(=O)OC2CC3CN4CCc5c([nH]c6cc(OC)ccc56)C4CC3C(C(=O)OC)C2OC)cc1OC (stereo unspecified)
3,6.06,CC1(C)CCC2(C(=O)OC3OC(CO)C(O)C(O)C3O)C(O)CC3(C)C(=CCC4C5(C)CCC(OC6OCC(O)C(OC7OC(CO)C(O)C(O)C7O)C6O)C(C)(C)C5CCC43C)C2C1 (stereo unspecified)
4,7.17,O=C1CC(c2ccccc2)Oc2ccc(O)cc21 (stereo unspecified)
5,5.35,O=C1CC(c2ccc(O)c(O)c2)Oc2cc(O)cc(O)c21 (stereo unspecified)
6,7.84,CC1(C)CC(=O)C2(C)CCC3(C)C(=CCC4C5(C)CCC(OC6OC(C(=O)O)C(O)C(O)C6OC6OC(CO)C(O)C(O)C6O)C(C)(CO)C5CCC43C)C2C1 (stereo unspecified)
7,2.53,O=C(O)CCCC(=O)O
8,4.94,CC1CCC2C(C)C3C(CC4C5CC=C6CC(OC7OC(CO)C(O)C(O)C7OC7OC(C)C(O)C(O)C7O)CCC6(C)C5CCC43C)N2C1 (stereo unspecified)
9,3.59,CC(=O)OC1CC(COC2OC(CO)C(O)C(O)C2O)CNC12OC1CC3C4CCC5CC(OC6OC(CO)C(OC7OC(CO)C(OC8OCC(O)C(O)C8O)C(O)C7OC7OC(CO)C(O)C(O)C7O)C(O)C6O)CCC5(C)C4CCC3(C)C1C2C (stereo unspecified)
10,3.56,O=C1c2ccc(O)cc2OCC1c1ccc(O)c(OC2OC(CO)C(O)C(O)C2O)c1 (stereo unspecified)
11,6.11,CC(C)=CCCC(C)(OC1OC(COC2OCC(O)C(O)C2O)C(O)C(O)C1O)C1CCC2(C)C1C(O)CC1C3(C)CCC(O)C(C)(C)C3C(O)CC12C (stereo unspecified)
12,3.79,CCC(C)C(NC(=O)C(N)Cc1ccccc1)C(=O)O (stereo unspecified)
13,8.56,CCCCC(=O)OC1C(CO)OC(OC2(CO)OC(CO)C(OC(C)=O)C2O)C(OC(=O)CCCC)C1OC(=O)CCCC (stereo unspecified)
14,3.08,COc1cc(C=CC(=O)NCCCCC(N)C(=O)O)ccc1O (stereo unspecified)
15,9.77,CC1(C)CCC2(C(=O)O)CCC3(C)C(=CCC4C5(C)CC(O)C(O)C(C)(C)C5CCC43C)C2C1 (stereo unspecified)
16,3.55,O=c1cc(-c2ccc(O)cc2)oc2c(C3OC(CO)C(O)C3O)c(O)c(C3OC(CO)C(O)C(O)C3O)c(O)c12 (stereo unspecified)
17,4.19,COc1cc(C=CC(=O)OCC2OC(OC3C(c4c(O)cc5oc(-c6ccc(O)c(OC)c6)cc(=O)c5c4O)OC(CO)C(O)C3O)C(O)C(O)C2O)ccc1O (stereo unspecified)
18,3.88,CC(=O)OC1CC(COC2OC(CO)C(O)C(O)C2O)CNC12OC1CC3C4CCC5CC(OC6OC(CO)C(OC7OC(CO)C(OC8OC=C(O)C(O)C8O)C(O)C7OC7OC(CO)C(O)C(O)C7O)C(O)C6O)CCC5(C)C4CCC3(C)C1C2C (stereo unspecified)
19,4.64,O=c1c(O)c(-c2ccc(O)c(O)c2)oc2c(OC3OC(CO)C(O)C(O)C3O)c(O)cc(O)c12 (stereo unspecified)
20,5.43,COc1ccc(-c2oc3c(CC=C(C)C)c(OC4OC(CO)C(O)C(O)C4O)cc(O)c3c(=O)c2OC2OC(C)C(O)C(O)C2O)cc1 (stereo unspecified)
21,4.76,COc1cc(CC(CO)C(CO)Cc2ccc(O)c(OC)c2)ccc1O (stereo unspecified)

row,LC retention time [min],Structure (SMILES)
1,7.68,CC1=C(O)C(=O)CC(OC2CC(C)(C)CC3C4=CCC5C6(C)CCC(OC7OC(C(=O)O)C(O)C(O)C7OC7OC(CO)C(O)C(O)C7OC7OC(C)C(O)C(O)C7O)C(C)(CO)C6CCC5(C)C4(C)CCC23C)O1 (stereo unspecified)
2,4.21,O=c1cc(-c2ccc(O)cc2)oc2cc(O)c(C3OCC(O)C(O)C3OC3OC(CO)C(O)C(O)C3O)c(O)c12 (stereo unspecified)
3,4.24,COc1cc(C=CC(=O)O)ccc1O
4,4.5,CC(O)(CC(=O)O)CC(=O)OCC1OC(Oc2c(-c3ccc(O)cc3)oc3cc(O)cc(O)c3c2=O)C(O)C(O)C1O (stereo unspecified)
5,3.12,OCC1OC(Oc2cc3c(O)cc(O)cc3[o+]c2-c2ccc(O)cc2)C(O)C(O)C1O (stereo unspecified)
6,5.71,CC1CCC2(OC1O)OC1CC3C4CC=C5CC(OC6OC(CO)C(OC7OC(C)C(O)C(O)C7O)C(O)C6OC6OC(C)C(O)C(O)C6O)CCC5(C)C4CCC3(C)C1C2C (stereo unspecified)
7,4.1,O=C(O)CC(=O)OCC1OC(Oc2ccc3c(=O)c(-c4ccc(O)cc4)coc3c2)C(O)C(O)C1O (stereo unspecified)
8,4.05,CC(CS)C(=O)N1CCCC1C(=O)O (stereo unspecified)
9,6.45,CC1(C(=O)O)CCC2(C)CCC3(C)C(=CCC4C5(C)CCC(OC6OC(C(=O)O)C(O)C(O)C6OC6OC(C(=O)O)C(O)C(O)C6O)C(C)(C)C5CCC43C)C2C1 (stereo unspecified)
10,3.89,O=c1cc(-c2ccc(O)cc2)oc2c(C3OCC(O)C(O)C3O)c(O)c(C3OCC(O)C(O)C3O)c(O)c12 (stereo unspecified)
11,4.62,CC1CCC2(NC1)OC1CC3C4CC=C5CC(OC6OC(CO)C(O)C(OC7OC(CO)C(O)C(O)C7O)C6OC6OC(C)C(O)C(O)C6O)CCC5(C)C4CCC3(C)C1C2C (stereo unspecified)
12,5.79,COC(=O)C1=C2Nc3ccccc3C23CCN2C4OC56C7CC4(CN5c4c(OC)cccc4C64CCN5CCC6OCCC6(C7)C54)C4OCCC4(C1)C23 (stereo unspecified)
13,2.46,CC(=O)N1CCCC1C(=O)O (stereo unspecified)
14,1.75,O=c1[nH]c(=O)c2[nH]cnc2[nH]1
15,5.61,CC(C)C(NC(=O)Cc1c[nH]c2ccccc12)C(=O)O (stereo unspecified)
16,7.51,CC(C)=CCc1c(O)ccc2c1OCC(c1ccc(O)cc1O)C2=O (stereo unspecified)
17,5.2,CC1=C(CCC(C)COC2OC(CO)C(O)C(O)C2OC2OC(C)C(O)C(O)C2O)OC2CC3C4CC=C5CC(O)CC(OC6OC(CO)C(O)C(O)C6O)C5(C)C4CCC3(C)C12 (stereo unspecified)
18,4.23,COc1cc(C=CC(=O)OC(CC(=O)O)C(=O)O)cc(OC)c1O (stereo unspecified)
19,4.36,CN1CCc2cc3c(cc2C(=O)Cc2ccc4c(c2C1)OCO4)OCO3
20,4.91,Oc1ccc(C2Oc3cc(O)cc(O)c3CC2O)cc1 (stereo unspecified)
21,4.76,COc1cc(C=CC(=O)OC2C(OC3C(Oc4ccc(-c5cc(=O)c6c(O)cc(O)cc6o5)cc4)OC(C(=O)O)C(O)C3O)OC(C(=O)O)C(O)C2O)ccc1O (stereo unspecified)

row,LC retention time [min],Structure (SMILES)
1,7.44,CC1(C)CC(O)C2(C)CCC3(C)C(=CCC4C5(C)CCC(OC6OC(C(=O)O)C(O)C(O)C6OC6OCC(O)C(O)C6O)C(C)(CO)C5CCC43C)C2C1 (stereo unspecified)
2,4.05,OCC1OC(Oc2cc(O)cc(C=Cc3ccc(O)cc3)c2)C(O)C(O)C1O (stereo unspecified)
3,8.57,CC1CCC2(OC1)OC1CC3C4CC=C5CC(O)CC(OC6OCC(O)C(O)C6OC6OC(C)C(O)C(O)C6O)C5(C)C4CCC3(C)C1C2C (stereo unspecified)
4,3.59,Oc1cc(O)c2ccc(-c3ccc(O)c(O)c3)[o+]c2c1
5,7.49,COc1c(C=CC(=O)c2ccc(O)c(O)c2)ccc(O)c1CC=C(C)C
6,6.41,CC=CSSC=CC
7,3.19,COc1cc(-c2[o+]c3cc(O)cc(O)c3cc2OC2OC(CO)C(O)C(O)C2O)cc(OC)c1O (stereo unspecified)
8,1.82,CCC(C)C(N)C(=O)NC(CCC(N)=O)C(=O)O (stereo unspecified)
9,4.6,O=C(C=Cc1ccc(O)c(O)c1)OC1C(O)CC(O)(C(=O)O)CC1O (stereo unspecified)
10,2.65,OCC1OC(Oc2cc3c(O)cc(O)cc3[o+]c2-c2cc(O)c(O)c(O)c2)C(OC2OCC(O)C(O)C2O)C(O)C1O (stereo unspecified)
11,6.03,COc1cccc(C=CC(=O)O)c1
12,5.03,COc1cc2c(c(OC)c1OC)-c1ccc(OC)c(=O)cc1C(N(C)Cc1ccccc1O)CC2 (stereo unspecified)
13,8.93,CCC=CCC=CCC=CCCCCCCCC(=O)OCC(O)COP(=O)([O-])OCC[N+](C)(C)C (stereo unspecified)
14,5.15,CCOC1OC2c3cc4c(cc3CCN(C)C2c2ccc3c(c21)OCO3)OCO4 (stereo unspecified)
15,2.4,CCC1C(=O)OCC1Cc1cncn1C (stereo unspecified)
16,4.96,COc1cc(C2Oc3c(O)cc(C4Oc5cc(O)cc(O)c5C(=O)C4O)cc3C2CO)ccc1O (stereo unspecified)
17,3.34,CC(O)(CC(=O)O)CC(=O)OCC1OC(Oc2c(-c3ccc(O)cc3)oc3cc(OC4OC(CO)C(O)C(O)C4O)cc(O)c3c2=O)C(O)C(O)C1O (stereo unspecified)
18,6.14,CCC(C)C(NC(=O)Cc1c[nH]c2ccccc12)C(=O)O (stereo unspecified)
19,5.14,CC(=O)OCC1OC(Oc2cc(O)c3c(=O)cc(-c4ccc(O)cc4)oc3c2)C(O)C(O)C1O (stereo unspecified)
20,3.39,CC1OC(OCC2OC(Oc3c(-c4ccc(O)c(O)c4)oc4cc(OC5OC(CO)C(O)C(O)C5O)cc(O)c4c3=O)C(O)C(O)C2O)C(O)C(O)C1O (stereo unspecified)
21,3.83,O=C(C=Cc1ccc(O)cc1)NCCCCNCCCNC(=O)C=Cc1ccc(O)cc1

row,Structure (SMILES),LC retention time [min]
1,CC=C1CN(C)C2Cc3c([nH]c4ccccc34)C(c3cc4[nH]c5c(c4cc3OC)CCN3CC4CC(CC)C3C5(C(=O)OC)C4)CC1C2C(=O)OC (stereo unspecified),4.94
2,CCC1C2CC3C4N(C)c5ccccc5C45CC(C2C5O)N3C1O (stereo unspecified),4.13
3,Cc1ccc([N+](=O)[O-])cc1N,2.34
4,CN(C)CCc1ccc(O)cc1,2.05
5,C=CC12CN(C)C3CC14C(=Nc1ccccc14)C1CC2C3CO1 (stereo unspecified),3.58
6,CCC1C2CCN3CCC4(C(=C2C(=O)OC)Nc2ccccc24)C13 (stereo unspecified),4.92
7,CC(C)=CCCC(C)(O)C1CCC2(C)C1C(O)CC1C3(C)CCC(O)C(C)(C)C3C(OC3OC(CO)C(O)C(O)C3O)CC12C (stereo unspecified),6.29
8,CCC1(O)C(=O)OCc2c1cc1n(c2=O)Cc2cc3ccccc3nc2-1 (stereo unspecified),5.4
9,CCc1nccc2c1[nH]c1ccccc12,4.01
10,CCN1CC2(COC(=O)c3ccccc3N)CCC(OC)C34C5CC6C(OC)CC(O)(C5C6OC)C(O)(C(OC)C23)C14 (stereo unspecified),5.5
11,CNC(=O)Oc1ccc2c(c1)C1(C)CCN(C)C1N2C (stereo unspecified),3.31
12,CCC1CN2CCc3cc(OC)c(OC)cc3C2CC1CC1NCCc2cc(O)c(OC)cc21 (stereo unspecified),2.98
13,CCC1CN2CCC3(O)C(=Nc4cccc(OC)c43)C2CC1C(=COC)C(=O)OC (stereo unspecified),4.26
